Source: the NIST ThermoML archive (doi:10.1021/je400159e)

Tests used:
[1] = Crystal; Adiabatic calorimetry
[2] = Molar enthalpy of transition or fusion; conditions: Crystal; Adiabatic calorimetry
[3] = molar heat capacity at constant pressure; conditions: 101.33 kPa, Vacuum adiabatic calorimetry

CCOC(=O)C(NC(C)=O)C(=O)OCC [diethyl 2-acetamidomalonate]
Conditions | Molar enthalpy of transition or fusion [kcal/mol] | Triple point temperature [K]
[1] | – | 368.72
[2] | 8.198 | –

[3]
Conditions | molar heat capacity at constant pressure [J/K/mol]
78.24 K, Crystal | 110.9
80 K, Crystal | 117.6
80.92 K, Crystal | 118.8
84.07 K, Crystal | 125.4
85 K, Crystal | 125.6
87.1 K, Crystal | 128.6
90 K, Crystal | 132.8
90.03 K, Crystal | 132.3
92.96 K, Crystal | 137.3
95 K, Crystal | 139.4
95.86 K, Crystal | 140.8
98.72 K, Crystal | 143.3
100 K, Crystal | 145.5
102.57 K, Crystal | 147.5
105 K, Crystal | 151
106.44 K, Crystal | 151.4
109.33 K, Crystal | 154.8
110 K, Crystal | 156.2
112.24 K, Crystal | 157.6
115 K, Crystal | 161
115.17 K, Crystal | 161.2
118.1 K, Crystal | 164.5
120 K, Crystal | 165.6
121.02 K, Crystal | 167.2
123.94 K, Crystal | 169.6
125 K, Crystal | 170
126.84 K, Crystal | 172.1
129.74 K, Crystal | 174.4
130 K, Crystal | 174.2
132.64 K, Crystal | 176.4
135 K, Crystal | 178.3
135.54 K, Crystal | 179.1
138.43 K, Crystal | 181.8
140 K, Crystal | 182.4
141.33 K, Crystal | 184
144.22 K, Crystal | 186.7
145 K, Crystal | 186.3
147.11 K, Crystal | 188.2
149.99 K, Crystal | 190.2
150 K, Crystal | 190.2
153.39 K, Crystal | 192.9
155 K, Crystal | 194.1
157.07 K, Crystal | 195.6
160 K, Crystal | 197.9
160.22 K, Crystal | 198.3
163.12 K, Crystal | 200.2
165 K, Crystal | 201.8
166.04 K, Crystal | 202.4
168.95 K, Crystal | 204.2
170 K, Crystal | 205.6
171.83 K, Crystal | 206.6
174.74 K, Crystal | 208.8
175 K, Crystal | 209.5
177.68 K, Crystal | 211
180 K, Crystal | 213.4
180.6 K, Crystal | 213.6
183.5 K, Crystal | 216.3
185 K, Crystal | 217.3
186.43 K, Crystal | 218.3
189.39 K, Crystal | 219.7
190 K, Crystal | 221.2
192.32 K, Crystal | 222.4
195 K, Crystal | 225.1
195.24 K, Crystal | 225
198.14 K, Crystal | 227.4
200 K, Crystal | 229
201.06 K, Crystal | 229.4
204.69 K, Crystal | 233
205 K, Crystal | 232.9
208.24 K, Crystal | 235.4
210 K, Crystal | 236.8
211.12 K, Crystal | 237.9
214.07 K, Crystal | 239.9
215 K, Crystal | 240.8
216.99 K, Crystal | 243.1
219.9 K, Crystal | 244
220 K, Crystal | 244.7
222.8 K, Crystal | 246.7
225 K, Crystal | 248.7
225.75 K, Crystal | 249.4
228.73 K, Crystal | 251.2
230 K, Crystal | 252.7
231.68 K, Crystal | 254.7
234.64 K, Crystal | 256.9
235 K, Crystal | 256.7
237.58 K, Crystal | 259.4
240 K, Crystal | 260.7
240.49 K, Crystal | 260.9
244 K, Crystal | 264.3
245 K, Crystal | 264.8
247.5 K, Crystal | 267.7
250 K, Crystal | 268.8
250.46 K, Crystal | 269.6
253.49 K, Crystal | 272.7
255 K, Crystal | 273
256.52 K, Crystal | 275
259.52 K, Crystal | 277.5
260 K, Crystal | 277.2
262.52 K, Crystal | 280.1
265 K, Crystal | 281.4
265.5 K, Crystal | 282.4
268.47 K, Crystal | 283.8
270 K, Crystal | 285.7
271.42 K, Crystal | 286.1
274.37 K, Crystal | 289.5
275 K, Crystal | 290.2
277.31 K, Crystal | 290.7
280 K, Crystal | 294.7
280.26 K, Crystal | 293.6
283.28 K, Crystal | 297.4
285 K, Crystal | 299.3
286.35 K, Crystal | 300.4
289.39 K, Crystal | 302.9
290 K, Crystal | 304.1
292.4 K, Crystal | 306.6
295 K, Crystal | 309
295.4 K, Crystal | 308.5
298.15 K, Crystal | 312.2
298.4 K, Crystal | 312
300 K, Crystal | 314.1
301.4 K, Crystal | 314.7
304.39 K, Crystal | 318.4
305 K, Crystal | 319.3
307.37 K, Crystal | 321.4
310 K, Crystal | 324.7
310.35 K, Crystal | 325.7
313.32 K, Crystal | 329.7
315 K, Crystal | 330.4
316.34 K, Crystal | 332.9
319.44 K, Crystal | 336.2
320 K, Crystal | 336.2
322.53 K, Crystal | 340.6
325 K, Crystal | 342.2
325.61 K, Crystal | 343
328.68 K, Crystal | 346.8
330 K, Crystal | 348.5
331.74 K, Crystal | 350.7
334.79 K, Crystal | 354.3
335 K, Crystal | 355
337.83 K, Crystal | 358
340 K, Crystal | 361.7
340.85 K, Crystal | 362.6
343.87 K, Crystal | 367.1
345 K, Crystal | 368.6
372.62 K, Liquid | 463.3
375 K, Liquid | 465
375.92 K, Liquid | 465.4
379.02 K, Liquid | 467.3
380 K, Liquid | 467.7
382.13 K, Liquid | 468.9
385 K, Liquid | 470.4
385.23 K, Liquid | 470.4
388.37 K, Liquid | 472.1
390 K, Liquid | 472.9
391.51 K, Liquid | 473.6
394.65 K, Liquid | 475.2
395 K, Liquid | 475.3
